These results are taken from US9540299B2, “MTOR-independent activator of TFEB for autophagy enhancement and uses thereof” (Hong Kong Baptist University, priority 2015, dated 2017).

One test deals with N2a cells. Kind of test: Lysosomal markers LAMP1 and CTSD by western blot in N2a cells. The test is classed as cell-based, mouse. The settings on record: 12 hours. The protocol: N2a cells are treated with different concentrations (0-1 μM) of E4 for 12 hours. Torin 1 (1 μM) is used as a positive control. The expression of LAMP1, pro-CTSD and mature CTSD (M-CTSD) are determined by western blotting (FIG. 25A) and quantified (FIG. 25B). Quantification data are presented as the mean±SD from three independent experiments. *p<0.05, **p<0.01 vs. the control (0.1% DMSO).
After transiently knockdown the expression of TFEB, N2a cells are treated with E4 (1 μM) for 12 hours, the expression of LAMP1, Pro-CTSD and mature CTSD (M-CTSD) are detected by Western blotting (FIG. 29A). Quantification data are presented as the mean±SD from three independent experiments FIG. 29B. **p<0.01 vs. the control (0.1% DMSO).
N2a and HeLa cells are cultured in DMEM supplemented with 10% FBS. HeLa cells stably expressing 3×-Flag-TFEB are maintained in DMEM supplemented with 10% FBS and 500 μg/mL G418. For drug treatment, the full medium is replaced by fresh Opti-MEM I containing the compounds (in 0.1% DMSO) and incubated for the indicated time periods.
N2a cells are transfected with mouse Tfeb siRNA and the non-target siRNA using Lipofectamine RNAiMAX (13778030, Invitrogen) and incubated at 37° C. for 72 hours.
Cells are lysed on ice in 1× Lysis Buffer (9803, Life Technologies) with complete protease inhibitor mixture (04693124001, Roche Applied Science) and phosphatase inhibitor (B15001, Biotool). Cytosolic and nuclear fractions are isolated using protocols similar to those described previously. Proteins are separated by 10-15% SDS-PAGE, transferred, and blotted with the antibodies described. The blots are then incubated with primary and secondary antibodies. The protein signals are detected by the ECL kit (32106, Pierce) and quantified using ImageJ software.
In general terms: A western blot detects proteins with antibodies after separation by electrophoresis.

In test [1] the target is T1, MTOR-TFEB-YWHA interaction (Homo sapiens, UniProt P19484).
T1 construct: expressed in transfected cells; host or cells: HeLa cells stably expressing 3×Flag-TFEB; MTOR and YWHA are endogenous
T1 sequence (P19484 1-476): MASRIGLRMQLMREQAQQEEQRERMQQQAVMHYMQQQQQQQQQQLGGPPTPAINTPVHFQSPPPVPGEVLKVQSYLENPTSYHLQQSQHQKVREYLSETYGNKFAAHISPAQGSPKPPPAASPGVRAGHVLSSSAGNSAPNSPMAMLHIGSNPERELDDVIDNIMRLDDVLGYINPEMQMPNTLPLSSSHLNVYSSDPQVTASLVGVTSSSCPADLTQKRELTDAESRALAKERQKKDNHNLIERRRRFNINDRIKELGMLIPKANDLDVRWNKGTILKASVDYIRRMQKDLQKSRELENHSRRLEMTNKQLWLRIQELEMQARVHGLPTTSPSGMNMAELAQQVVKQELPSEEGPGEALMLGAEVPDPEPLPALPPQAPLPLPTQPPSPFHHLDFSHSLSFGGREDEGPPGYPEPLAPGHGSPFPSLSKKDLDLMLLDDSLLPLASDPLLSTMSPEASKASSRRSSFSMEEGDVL
Description: Co-immunoprecipitation of MTOR and YWHA with Flag-TFEB in Hela cells. The test is classed as cell-based. Conditions: Hela 3×Flag-TFEB cells, 1 μM, 12 h. Here is the method:
Hela cells stably expressing 3×Flag-TFEB are treated with C1 (1 μM) for 12 h. Endogenous MTOR and YWHA are co-immunoprecipitated with Flag-TFEB. Western blots and levels of immunoprecipitated MTOR (FIG. 5A) and YWHA (FIG. 5B) normalized to their corresponding levels in whole cell lysates (WCL). Data are presented as the mean±SD from three independent experiments. *p<0.05 vs. the control. WB—western blot and IP—immunoprecipitation. Cells are lysed on ice in 1× Lysis Buffer (9803, Life Technologies) with complete protease inhibitor mixture (04693124001, Roche Applied Science). Animal tissues are homogenized in nine volumes of ice-cold PBS supplemented with protease inhibitors. Cytosolic and nuclear fractions are isolated using protocols similar to those described previously. Anti-Flag or TFEB antibody is added to the whole cell lysates and Dynabeads® Protein G (10003D, Life Technologies) is used for immunoprecipitation. Proteins are separated by 10-15% SDS-PAGE, transferred, and blotted with the antibodies described. The blots are then incubated with secondary antibodies or the Clean-Blot IP Detection Reagent (21230, Thermo Scientific) at room temperature for 1 h. The protein signals are detected by ECL kit (32106, Pierce) and quantified using ImageJ software. Hela cells stably expressing 3×Flag-TFEB are treated with C1 (1 μM) for 12 h. […]

For the molecule `O=C(/C=C/c1ccccc1I)/C=C/c1ccccc1I` [E4], in the test on N2a cells (0-1 μM, dose-dependent manner), the “levels of Pro-CTSD and mature CTSD (M-CTSD)” value was “increases”; the “levels of the lysosomal marker LAMP1” value was “significantly increases”. For the same molecule, the “LAMP1, pro-CTSD and CTSD levels in control (non-target siRNA) cells” value in the test with N2a cells (1 μM) is listed as “significantly increases”.
Turning to `COc1ccccc1/C=C/C(=O)/C=C/c1ccccc1OC` [C1, 1,5-bis(2-methoxyphenyl)penta-1,4-dien-3-one], in test [1], the “MTOR and YWHA coimmunoprecipitated with Flag-TFEB compared with control” value is listed as “decreased”; the “levels of endogenous MTOR and YWHA” value is on record as “does not affect”.
